Experimental data: patent US8426447B2, “Spiro-tricyclic ring compounds as beta-secretase modulators and methods of use” (Amgen Inc., priority 2008, dated 2013)

Columns and labels:
BACE1 [1] = molecular target: T1, BACE1 (Homo sapiens, UniProt P56817); assay: In Vitro Enzymatic BACE FRET (Fluorescence Resonance Energy Transfer) Assay; assay type: biochemical; settings: read-out: BACE1 FRET assay
Procedure, shortened: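 Run in 0.05 M acetate pH 4.2 with 10% DMSO final and 100 uM genapol detergent below its CMC. Reaction was started with 50 nM FRET peptide substrate (fluorophore and quencher flanking the BACE cleavage site), incubated one hour, stopped with Tris to neutral pH, and fluorescence read.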

BACE1 [2] = molecular target: T1, BACE1; assay: In Vitro BACE Cell-based Assay (HEK cell assay): Aβ40 in conditioned medium of cells stably expressing Amyloid Precursor Protein, sandwich ELISA; settings: read-out: HEK cell assay
Procedure, shortened: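 Read-out is time-resolved fluorescence of Aβ40 in supernatant, captured by pAb40 and detected with biotinylated 6E10 plus Streptavidin-Europium. Cells stably expressing APP received compounds for 24 h over 10 concentrations starting at 100 μM or 10 μM, final DMSO 0.1%.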

[3] = in vitro BACE FRET enzyme assay, IC50 class symbols
[4] = HEK cell-based assay, Aβ40 in conditioned medium, IC50 class symbols

T1 sequence (P56817 46-501, species assumed): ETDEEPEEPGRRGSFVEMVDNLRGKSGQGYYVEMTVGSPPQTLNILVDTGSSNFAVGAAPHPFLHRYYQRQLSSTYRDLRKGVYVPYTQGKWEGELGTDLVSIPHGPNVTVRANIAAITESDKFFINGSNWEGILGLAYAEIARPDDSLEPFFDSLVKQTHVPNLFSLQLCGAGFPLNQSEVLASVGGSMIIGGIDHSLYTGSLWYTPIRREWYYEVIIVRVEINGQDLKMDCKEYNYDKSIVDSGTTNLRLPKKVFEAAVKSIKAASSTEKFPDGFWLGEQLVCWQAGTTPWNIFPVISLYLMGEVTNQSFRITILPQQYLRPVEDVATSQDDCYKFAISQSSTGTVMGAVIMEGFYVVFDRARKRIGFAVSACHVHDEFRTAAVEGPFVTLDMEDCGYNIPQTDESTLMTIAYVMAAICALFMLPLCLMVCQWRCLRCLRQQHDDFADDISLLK

## CC1(COc2ccc3c(c2)[C@@]2(COC(N)=N2)c2cc(-c4cccc(Cl)c4)cnc2O3)COC1 [compound 772]
BACE1 [1]
  IC50: < 0.1 µM
BACE1 [2]
  IC50: 0.1 to 1 µM

## CC(C)(C)COc1ccc2c(c1)[C@]1(COC(N)=N1)c1cc(-c3ccc(Cl)nc3)ccc1O2 [compound 887]
BACE1 [1]; Table IV, class symbols
  IC50: < 0.1 µM
BACE1 [2]; Table IV, class symbols
  IC50: 0.1 to 1 µM

## CC(C)(C#N)COc1cnc2c(c1)[C@]1(COC(N)=N1)c1cc(-c3cccnc3)ccc1O2 [compound 410]
BACE1 [1]; [3]
  IC50: < 0.1 µM
BACE1 [2]; [4]
  IC50: < 0.1 µM

## NC1=N[C@]2(CO1)c1cc(OCC(O)(C(F)(F)F)C(F)(F)F)ccc1Oc1ccc(-c3cccnc3)cc12 [compound 894]
BACE1 [1]; Table IV, class symbols
  IC50: < 0.1 µM
BACE1 [2]; Table IV, class symbols
  IC50: 0.1 to 1 µM

## COc1ccc2c(c1)[C@@]1(COC(N)=N1)c1cc(Br)cc(F)c1O2 [compound 406]
BACE1 [1]; [3]
  IC50: > 5 µM
BACE1 [2]; [4]
  IC50: > 5 µM

## CC(C)c1nc(-c2ccc3c(c2)[C@@]2(COC(N)=N2)c2cc(OCC(C)(C)C)ccc2O3)cs1 [compound 832]
BACE1 [1]; Table IV, class symbols
  IC50: 0.1 to 1 µM
BACE1 [2]; Table IV, class symbols
  IC50: 1 to 5 µM

## NC1=N[C@@]2(CO1)c1cc(-c3cc(Cl)ccc3F)ccc1Oc1ncc(C3CCOCC3)cc12 [compound 404]
BACE1 [1]; [3]
  IC50: < 0.1 µM
BACE1 [2]; [4]
  IC50: < 0.1 µM

## NC1=N[C@@]2(CO1)c1cc(-c3cccnc3)ccc1Oc1ncc(N3CCOCC3)cc12 [compound 539]
BACE1 [1]; Table IV, class symbols
  IC50: < 0.1 µM
BACE1 [2]; Table IV, class symbols
  IC50: < 0.1 µM

## Cc1cc(-c2ccc3c(c2)[C@]2(COC(N)=N2)c2cc(-c4cccnc4)ccc2O3)on1 [compound 693]
BACE1 [1]
  IC50: < 0.1 µM
BACE1 [2]
  IC50: < 0.1 µM

## COc1cnc2c(c1)[C@@]1(COC(N)=N1)c1cc(Br)ccc1O2 [compound 543]
BACE1 [1]; Table IV, class symbols
  IC50: > 5 µM
BACE1 [2]; Table IV, class symbols
  IC50: > 5 µM

## CC(C)(C)C[C@@H](F)c1ccc2c(c1)[C@]1(COC(N)=N1)c1cc(-c3cncnc3)ccc1O2 [116b, (4S)-2′-((1R)-1-fluoro-3,3-dimethylbutyl)-7′-(5-pyrimidinyl)spiro[1,3-oxazole-4,9′-xanthen]-2-amine]
BACE1 [1]; Table III, IC50's in uM ranges
  IC50: < 0.1 µM
BACE1 [2]; Table III, IC50's in uM ranges
  IC50: 0.1 to 1 µM

## COc1ccc2c(c1)[C@]1(COC(N)=N1)c1cc(-c3cc(Cl)ccc3F)ccc1O2 [Example 12, (4S)-2′-(5-chloro-2-fluorophenyl)-7′-methoxyspiro[1,3-oxazole-4,9′-xanthen]-2-amine trifluoroacetic acid]
BACE1 [1]; Table 1
  IC50: 0.1 to 1 µM
BACE1 [2]; Table 1, Aβ40, 24 h incubation
  IC50: > 5 µM

## CC(C)(C)COc1ccc2c(c1)[C@@]1(COC(N)=N1)c1cc(-c3ccccc3)cnc1O2 [compound 807]
BACE1 [1]; Table IV, class symbols
  IC50: < 0.1 µM
BACE1 [2]; Table IV, class symbols
  IC50: < 0.1 µM

## COC(C)(C)C#Cc1cc(F)c2c(c1)[C@@]1(COC(N)=N1)c1cc(-c3ccc(F)nc3)ccc1O2 [compound 645]
BACE1 [1]; Table IV, class symbols
  IC50: 0.1 to 1 µM
BACE1 [2]; Table IV, class symbols
  IC50: 1 to 5 µM

## CC(C)(C)C#Cc1cc2c(cn1)Oc1ccc(-c3cccnc3)cc1[C@@]21COC(N)=N1 [compound 845]
BACE1 [1]; Table IV, class symbols
  IC50: < 0.1 µM
BACE1 [2]; Table IV, class symbols
  IC50: < 0.1 µM

## CC(C)(O)C#Cc1cnc2c(c1)[C@]1(COC(N)=N1)c1cc(-c3ccc(F)nc3)ccc1O2 [compound 794]
BACE1 [1]; Table IV, class symbols
  IC50: < 0.1 µM
BACE1 [2]; Table IV, class symbols
  IC50: < 0.1 µM

## COC(C)(C)C#Cc1ccc2c(c1)[C@@]1(COC(N)=N1)c1cc(C#CC(C)(C)OC)cnc1O2 [compound 934]
BACE1 [1]
  IC50: < 0.1 µM
BACE1 [2]
  IC50: < 0.1 µM

## CC(C)(C)COc1ccc2c(c1)[C@]1(COC(N)=N1)c1cc(-c3cnc4ccccn34)ccc1O2 [compound 975]
BACE1 [1]
  IC50: 0.1 to 1 µM
BACE1 [2]
  IC50: 0.1 to 1 µM

## Cc1ccc2c(c1)Oc1ccc(Br)cc1C21COC(N)=N1 (stereo not shown) [Example 37, 2′-bromo-6′-methylspiro[1,3-oxazole-4,9′-xanthen]-2-amine]
BACE1 [1]; Table 1
  IC50: > 5 µM
BACE1 [2]; Table 1, Aβ40, 24 h incubation
  IC50: > 5 µM

## Cc1cnc(F)c(-c2ccc3c(c2)[C@@]2(COC(N)=N2)c2cccnc2O3)c1 [compound 571]
BACE1 [1]; Table IV, class symbols
  IC50: 0.1 to 1 µM
BACE1 [2]; Table IV, class symbols
  IC50: 0.1 to 1 µM

## Cc1ccc(-n2ccc3c(c2=O)[C@@]2(COC(N)=N2)c2cc(-c4cccnc4)ccc2O3)cc1 [compound 503]
BACE1 [1]
  IC50: > 5 µM
BACE1 [2]; HEK cells
  IC50: 1 to 5 µM

## CC(C)(O)COc1ccc2c(c1)[C@]1(COC(N)=N1)c1cc(-c3cccnc3)ccc1O2 [Example 135, (S)-1-(2-amino-2′-(pyridin-3-yl)-5H-spiro[oxazole-4,9′-xanthene]-7′-yloxy)-2-methylpropan-2-ol]
BACE1 [1]; Table III, IC50's in uM ranges
  IC50: < 0.1 µM
BACE1 [2]; Table III, IC50's in uM ranges
  IC50: < 0.1 µM

## Cn1ccc2cc(-c3ccc4c(c3)[C@@]3(COC(N)=N3)c3cc(OCC(C)(C)C)ccc3O4)ccc21 [compound 914]
BACE1 [1]; Table IV, class symbols
  IC50: 0.1 to 1 µM
BACE1 [2]; Table IV, class symbols
  IC50: > 5 µM

## COc1ccc2c(c1)C1(COC(N)=N1)c1cc(-c3cncnc3)ccc1O2 (stereo not shown) [Example 14, 2′-methoxy-7′-(5-pyrimidinyl)spiro[1,3-oxazole-4,9′-xanthen]-2-amine]
BACE1 [1]; Table 1
  IC50: 0.1 to 1 µM
BACE1 [2]; Table 1, Aβ40, 24 h incubation
  IC50: 1 to 5 µM

## CC(C)(C)COc1ccc2c(c1)[C@]1(COC(N)=N1)c1cc(-c3ccc(Br)nn3)ccc1O2 [compound 970]
BACE1 [1]
  IC50: 0.1 to 1 µM
BACE1 [2]
  IC50: > 5 µM

## CC(C)(O)C#Cc1ccc2c(c1)C1(COC(N)=N1)c1cc(C#CC(C)(C)O)cnc1O2 (stereo not shown) [Example 114, 4,4′-(−2′-aminospiro[chromeno[2,3-b]pyridine-5,4′-[1,3]oxazole]-3,7-diyl)bis(2-methyl-3-butyn-2-ol)]
BACE1 [1]; Table III, IC50's in uM ranges
  IC50: 0.1 to 1 µM
BACE1 [2]; Table III, IC50's in uM ranges
  IC50: 0.1 to 1 µM
